In patent US20080267947A1, “Cancer therapy with cantharidin and cantharidin analogs” (priority 2006, published 2008):
Read-outs that look alike come from different tables or passages of the source.

Legend:
[1] = XTT colorimetric cytotoxicity assay on cord blood CD34+ cells; assay type: cell-based; conditions: CD34+ cells from normal human cord blood; FIG. 1; read-out: IC50, cytotoxicity against CD34+ cells (XTT)
Experimental: (§1) Determination of cell viability using the XTT assay: In some cases, CD34+ cells are isolated from human cord blood using magnetic beads coated with anti-CD34 antibody. Isolated cells are then counted and aliquoted into 96-well plates and then incubated in the presence of varying concentrations of cantharidin or norcantharidin. Cell viability it measured by the addition of the XTT calorimetric reagent. Viability is determined by the absorbance of treated cultures at approximately 450-500 nm compared to untreated cultures. In other cases, the cells used in the assay may be a leukemia cell line, such as MV4; 11. The assay can also be used to determine the time course of cell killing by various compounds by performing the XTT assay on cultures that are incubated with the compounds for varying periods of time.
(§2) CD34^+ cells were obtained from normal human cord blood by magnetic bead selection using anti-CD34 antibody coated beads. The cytotoxicity of cantharidin and norcantharidin against these cells was measured by a colorimetric assay using XTT (sodium 3′-{1-[(phenylamino)-carbonyl]-3,4-tetrazolium}-bis(4-methoxy-6-nitro) benzene-sulfonic acid hydrate). […] The absorbance of the supernatant was measured at 450 and 630 nm of wells without drug (with cells) as 100% and wells without cells as 0%. […]

[2] = system: CD34+ cells obtained from a leukemia patient (leukemic cancer stem cells); assay: Cobblestone area forming cell (CAFC) assay, leukemia patient versus cord blood CD34+ cells; assay type: cell-based, human; conditions: 10 μM and 75 μM overnight; for sensitivity of leukemia cancer stem cells relative to normal stem cells (cord blood CD34+): CAFC, 5 weeks; for activity against leukemic cancer stem cells (cobblestone area counts vs control): cobblestone areas counted after 5 weeks on MS-5 monolayer, FIGS. 2 and 3
Experimental: (§3) Cobblestone assay: The cobblestone area-forming cell (CAFC) assay exploits a reproducible visual end point for the quantitation of cancer stem cells. Leukemia samples are added to adherent cultures of stromal cells, some embodiments MS-5 stromal cells. The cancer stem cells in the culture will migrate below the MS-5 stromal cells and form a colony of cells called a cobblestone that can be visual quantitated. To test the effect of cantharidin or norcantharidin on the cancer stem cell population using this assay, cells are first cultured in the presence of the drug. In some embodiments the cells are cultured for 16 hours. After this incubation, the cells are added to the stromal cultures. A reduction in the cobblestone area formation in cultures that were treated with the drug compared to the untreated cells represents cancer stem cell activity for the drug.
Cells were treated with 10 μM and 75 μM cantharidin or norcantharidin overnight. To assay for stem cells by the cobblestone area forming cell (CAFC) assay, CD34^+ cells subsequent to drug treatment were co-cultured with the MS-5 monolayer in X-Eagle minimum essential medium (α-MEM) containing 10% heat-inactivated FCS, 10% horse serum, 1×10^−6 M hydrocortisone, 2 mM L-glutamine, and 100 U/mL penicillin/streptomycin. After 5 weeks in culture, total cobblestone areas were counted. FIGS. 2 and 3 show bar graphs representing cobblestone area counts in the presence of no drug (control) and 10 and 75 μM of cantharidin and norcantharidin, respectively, using CD34+ cells obtained from a leukemia patient, and CD34+normal stem cells isolated from human cord blood.

MV4; 11 leukemia cells = assay: XTT cytotoxicity assay on MV4;11 leukemia cells, 5 days exposure; assay type: cell-based; conditions: 5 days of exposure to drug, read-out: IC50, cytotoxicity against MV4;11 leukemia cells (XTT)
Experimental: as §1
The cytotoxicity of Cantharidin and Norcantharidin against MV4; 11 leukemia cells was measured by a calorimetric assay using XTT. MV4; 11 cells were plated in 96-well plates and the following day, cells were exposed to varying doses of cantharidin and norcantharidin. After 5 days of exposure to drugs, 50 μL of 1 mg/mL XTT and 0.025 mM phenazine methosulfate (PMS) were added. The absorbance of the supernatant was measured at 450 and 630 nm of wells not treated with drug (with cells) as 100% and wells without cells as 0%.

MV4; 11 cells = assay: XTT time course of killing of MV4;11 cells; assay type: cell-based; conditions: at 72 hours
Experimental: as §1
The XTT assay was used to determine the time course of killing of MV4; 11 cells incubated with cantharidin and norcantharidin over time.
Cantharidin was dissolved in DMSO at different concentrations to ensure that final concentrations of DMSO are equivalent in all wells. To control for potential cytotoxic effects of DMSO itself, an equivalent amount of DMSO containing no drug was used as a control.
Norcantharidin was dissolved in DMSO at different concentrations to ensure that final concentrations of DMSO are equivalent in all wells. To control for potential cytotoxic effects of DMSO itself, an equivalent amount of DMSO containing no drug was used as a control.

[3] = system: leukemia stem cells from bone marrow of a patient with acute myelgenous leukemia (AML); assay: CAFC assay of leukemia stem cells treated with cantharidin and standard chemotherapy; assay type: cell-based, human; conditions: 16 hours treatment, each of the concentrations tested; cobblestone areas after 5 weeks; FIG. 6
Experimental: as §3
Samples of primary human cord blood as well as from the bone marrow of a patient with acute myelgenous leukemia (AML) were tested. Cantharidin and norcantharidin were dissolved in DMSO, and Ara-c and daunorubicin were prepared according to the supplier's instructions. In addition, untreated controls (diluent alone) for both normal and leukemic CD34+ cells were also tested. Cells were treated with varying concentrations of drug for 16 hours. […] After 5 weeks in culture, total cobblestone areas were counted visually using a microscope.

[4] = system: CD34+ cells from normal human cord blood; assay: XTT colorimetric cytotoxicity assay on cord blood CD34+ cells; assay type: cell-based; conditions: FIG. 1, read-out: IC50, cytotoxicity against CD34+ cells (XTT)
Experimental: as §1, §2

Row | Structure (SMILES) | IC50 [1] | sensitivity of leukemia cancer stem cells relative to normal stem cells (cord blood CD34+) [2] | activity against leukemic cancer stem cells (cobblestone area counts vs control) [2] | IC50 (MV4; 11 leukemia cells; Homo sapiens, MV4-11, 120 h) | viability at 30 µM (MV4; 11 cells; Homo sapiens, MV4-11, 30 μM, read-out: cell viability of MV4;11 cells) | viability at 100 µM (MV4; 11 cells; Homo sapiens, MV4-11, 100 μM, read-out: cell viability of MV4;11 cells) | sensitivity of leukemia stem cells compared with cytarabine or daunorubicin (CAFC) [3] | IC50 [4] | IC50 (MV4; 11 leukemia cells) | cell viability of MV4;11 cells (MV4; 11 cells; 30 μM) | cell viability of MV4;11 cells (MV4; 11 cells; 100 μM)
1 | C[C@@]12C(=O)OC(=O)[C@]1(C)[C@H]1CC[C@@H]2O1 [cantharidin] | 6.5 µM | increased sensitivity | potent activity | 7.5 µM | < 10% | < 10% | more sensitive | – | – | – | –
2 | O=C1OC(=O)[C@H]2[C@@H]1[C@@H]1CC[C@H]2O1 [norcantharidin] | – | increased sensitivity | potent activity | – | – | – | – | 52 µM | 24 µM | less than 10% | less than 10%
